From patent publication US10195197B2, “Combination therapy with glutaminase inhibitors” (Calithera Biosciences, Inc., priority 2016, dated 2019)

System: JIMT-1 tumors
Test: JIMT-1 xenograft model, antitumor efficacy (in vivo TNBC model)
Conditions: single agent paclitaxel, five doses at 10 mg/kg every other day at start of study; initial regression followed by rapid regrowth; P=0.0002
Procedure: In the JIMT-1 xenograft model, the antitumor efficacy was evaluated by treating established tumors (125 mm^3 at the start of dosing) with CB-839 both as a single agent and in combination with paclitaxel, a standard-of-care chemotherapeutic agent for the treatment of TNBC. The regimen for paclitaxel (five doses at 10 mg/kg delivered every other day at the start of study) was chosen to provide suboptimal efficacy to ensure a window to evaluate the potential impact of combination treatment.

## CC(=O)O[C@H]1C(=O)[C@@]2(C)[C@H]([C@H](OC(=O)c3ccccc3)[C@]3(O)C[C@H](OC(=O)[C@H](O)[C@@H](NC(=O)c4ccccc4)c4ccccc4)C(C)=C1C3(C)C)[C@]1(OC(C)=O)CO[C@@H]1C[C@@H]2O [paclitaxel]
  TGI relative to vehicle control at the end of study: 73%
